{"source": "patent US12115373B2", "about": "“Methods for reducing the risk of strokes by pharmacotherapy to reduce the number and duration of atrial fibrillations” (Xyra, LLC, priority 2022, dated 2024)", "key": {"[1]": {"test_system": "patients with either paroxysmal or persistent AFib", "assay": "Clinical trial: episodes of long duration AFib (>5 hrs), pacemaker monitoring (Example 4)", "type": "in vivo", "conditions": "for Episodes of AFib > 5 hrs: Duration, percentage relative to the baseline / Episodes of AFib > 5 hrs: Duration / Episodes of AFib > 5 hrs: Number: 2 week period; for Episodes of AFib > 5 hrs: Duration / Episodes of AFib > 5 hrs: Number: 6 patients", "protocol": "This example is a clinical trial evaluation of budiodarone in treating 6 patients with either paroxysmal or persistent AFib who previously evidenced episodes of long duration AFib (greater than 5 hrs). In this example, the patients' heart rhythms were continuously monitored over a twelve-week period with a pacemaker (surgically invasive procedure) and were treated with different doses (2 weeks each) of budiodarone. In addition, during this trial, the patients were under continuous monitoring and constant clinician supervision.\nThe purpose of this example is to establish whether budiodarone reduces long duration AFib lasting more than 5 hours in a clinical study setting using a pacemaker to evaluate the heart rhythm.\n“Number” indicates the number of long duration episodes of AFib having a duration of greater than 5 hours. “Duration” indicates the amount of time during the 2 week period spent in the greater than 5 hour duration AFib, indicated in hours and a percentage relative to the baseline measurement. […] Finally, the 800 mg bid performed best. In all doses, the reduction in episodes of AFib of greater than 5 hours were above 85% and the corresponding reduction in AFib burden was above 90%."}, "[2]": {"test_system": "patients", "assay": "Clinical trial: longest duration episode of AFib at each dose, per subject (Example 7)", "type": "in vivo", "conditions": "for longest duration episode of AFib / longest duration episode of AFib, Total: 2 Weeks; for longest duration episode of AFib, Total: Total of subjects", "excerpt": "This example is a clinical trial evaluation of 6 patients treated with different doses of budiodarone each for a two-week period to determine the longest duration episode of AFib experienced at each dose. In this example, the patients' heart rhythms were continuously monitored over a twelve-week period with a pacemaker."}}, "data": [{"smiles": "CC[C@H](C)OC(=O)Cc1oc2ccccc2c1C(=O)c1cc(I)c(OCCN(CC)CC)c(I)c1", "note": "[budiodarone, (S)-sec-butyl2-(3-(4-(2-(diethylamino)ethoxy)-3,5-diiodobenzoyl)benzofuran-2-yl)acetate]", "values": [{"measurement": "Episodes of AFib > 5 hrs: Duration, percentage relative to the baseline", "setting": "[1]; 200 mg bid", "result": "(3.5%)"}, {"measurement": "Episodes of AFib > 5 hrs: Duration", "setting": "[1]; 200 mg bid", "result": 17, "unit": "h"}, {"measurement": "Episodes of AFib > 5 hrs: Number", "setting": "[1]; 200 mg bid", "result": 3}, {"measurement": "Episodes of AFib > 5 hrs: Duration, percentage relative to the baseline", "setting": "[1]; 400 mg bid", "result": "(7.7%)"}, {"measurement": "Episodes of AFib > 5 hrs: Duration", "setting": "[1]; 400 mg bid", "result": 38, "unit": "h"}, {"measurement": "Episodes of AFib > 5 hrs: Number", "setting": "[1]; 400 mg bid", "result": 4}, {"measurement": "Episodes of AFib > 5 hrs: Duration, percentage relative to the baseline", "setting": "[1]; 600 mg bid", "result": "(2.8%)"}, {"measurement": "Episodes of AFib > 5 hrs: Duration", "setting": "[1]; 600 mg bid", "result": 14, "unit": "h"}, {"measurement": "Episodes of AFib > 5 hrs: Number", "setting": "[1]; 600 mg bid", "result": 2}, {"measurement": "Episodes of AFib > 5 hrs: Duration, percentage relative to the baseline", "setting": "[1]; 800 mg bid", "result": "(1%)"}, {"measurement": "Episodes of AFib > 5 hrs: Duration", "setting": "[1]; 800 mg bid", "result": 5, "unit": "h"}, {"measurement": "Episodes of AFib > 5 hrs: Number", "setting": "[1]; 800 mg bid", "result": 1}, {"measurement": "corresponding reduction in AFib burden (episodes > 5 hours)", "setting": "[1]; in all doses (200-800 mg bid)", "result": "above 90%"}, {"measurement": "reduction in episodes of AFib of greater than 5 hours", "setting": "[1]; in all doses (200-800 mg bid)", "result": "above 85%"}, {"measurement": "dose required to eliminate all episodes of long duration AFib (>5 hrs)", "setting": "[2]; Subject 1", "result": 800, "unit": "mg bid"}, {"measurement": "longest duration episode of AFib", "setting": "[2]; Subject 1, 200 mg bid", "result": 5, "unit": "h"}, {"measurement": "longest duration episode of AFib", "setting": "[2]; Subject 1, 400 mg bid", "result": 8, "unit": "h"}, {"measurement": "longest duration episode of AFib", "setting": "[2]; Subject 1, 600 mg bid", "result": 7, "unit": "h"}, {"measurement": "longest duration episode of AFib", "setting": "[2]; Subject 1, 800 mg bid", "result": 3, "unit": "h"}, {"measurement": "longest duration episode of AFib", "setting": "[2]; Subject 2, 200 mg bid", "result": 6, "unit": "h"}, {"measurement": "longest duration episode of AFib", "setting": "[2]; Subject 2, 400 mg bid", "result": 13, "unit": "h"}, {"measurement": "longest duration episode of AFib", "setting": "[2]; Subject 2, 600 mg bid", "result": 0, "unit": "h"}, {"measurement": "longest duration episode of AFib", "setting": "[2]; Subject 2, 800 mg bid", "result": 5, "unit": "h"}, {"measurement": "longest duration episode of AFib", "setting": "[2]; Subject 3, 200 mg bid", "result": 7, "unit": "h"}, {"measurement": "longest duration episode of AFib", "setting": "[2]; Subject 4, 200 mg bid", "result": 0, "unit": "h"}, {"measurement": "longest duration episode of AFib", "setting": "[2]; Subject 4, 400 mg bid", "result": 2, "unit": "h"}, {"measurement": "longest duration episode of AFib", "setting": "[2]; Subject 4, 600 mg bid", "result": 2, "unit": "h"}, {"measurement": "longest duration episode of AFib", "setting": "[2]; Subject 4, 800 mg bid", "result": 1, "unit": "h"}, {"measurement": "longest duration episode of AFib", "setting": "[2]; Subject 5, 200 mg bid", "result": 3, "unit": "h"}, {"measurement": "longest duration episode of AFib", "setting": "[2]; Subject 5, 400 mg bid", "result": 2, "unit": "h"}, {"measurement": "longest duration episode of AFib", "setting": "[2]; Subject 5, 600 mg bid", "result": 0.8, "unit": "h"}, {"measurement": "longest duration episode of AFib", "setting": "[2]; Subject 5, 800 mg bid", "result": 1.6, "unit": "h"}, {"measurement": "dose required to eliminate all episodes", "setting": "[2]; Subject 6", "result": 600, "unit": "mg bid"}, {"measurement": "longest duration episode of AFib", "setting": "[2]; Subject 6, 200 mg bid", "result": 6, "unit": "h"}, {"measurement": "longest duration episode of AFib", "setting": "[2]; Subject 6, 400 mg bid", "result": 10, "unit": "h"}, {"measurement": "longest duration episode of AFib", "setting": "[2]; Subject 6, 600 mg bid", "result": 0, "unit": "h"}, {"measurement": "longest duration episode of AFib", "setting": "[2]; Subject 6, 800 mg bid", "result": 3, "unit": "h"}, {"measurement": "dose sufficient to eliminate all episodes of long duration AFib (>5 hrs)", "setting": "[2]; Subjects 4 and 5", "result": 200, "unit": "mg twice a day"}, {"measurement": "longest duration episode of AFib, Total", "setting": "[2]; 200 mg bid", "result": 21, "unit": "h"}, {"measurement": "longest duration episode of AFib, Total", "setting": "[2]; 400 mg bid", "result": 33, "unit": "h"}, {"measurement": "longest duration episode of AFib, Total", "setting": "[2]; 600 mg bid", "result": 7.8, "unit": "h"}, {"measurement": "longest duration episode of AFib, Total", "setting": "[2]; 800 mg bid", "result": 13.6, "unit": "h"}]}]}
